In patent US20120142730A1 (priority 2010, published 2012):

System: subjects with relapsing remitting multiple sclerosis (RRMS)
Experiment: ALLEGRO phase III trial: MRI endpoints (lesions, brain volume, MTR, 1H-MRS)
Assay type: in vivo, human
Parameters: key to BA from M12 to M24: percent change of brain volume (SIENA); Change in average MTR of T2 visible lesions / T2 volume / Hypointense T1 volume / GdE volume: unit not given here
Details: for BA at month 12, reduction / BA (brain atrophy, percent brain volume change) at month 12: baseline to 12 months
Experimental: Eligible subjects were equally randomized 1:1 into one of the following treatment arms: • 1. […] 21, 2007 (see, page 10, line 5 to page 11, line 3). • 2. Matching placebo for laquinimod arm: one capsule is administered once daily. MRI related secondary endpoints were the cumulative number of GdE lesions at months 12 and 24; and the cumulative number of new T2 lesions (relative to previous scan) at months 12 and 24; MRI exploratory endpoints included percent change of brain volume using SIENA.^10 Additional MRI methodological details are as follows: In all patients, MRI scans were performed at 0, 12, and 24 months. Before a site could enrol study participants they were required to image a volunteer patient with definite MS twice with repositioning according to a strict study imaging protocol using scanners with a minimum field strength of 1.5T. Fast/turbo spin echo (repetition time [TR]=2200-3500 ms, echo time [TE]=14-50/90-120 ms, echo train length=2-7, slice thickness=3 mm, and contiguous axial slices= • 44) sequences were used to obtain proton density and T2-weighted images. High resolution pre-contrast 3D T1-weighted sequences (TR=8-15 ms, TE=3-5 ms, inversion time=1.1 s, number of slices 160, slice thickness 1.2 mm, flip angle [FA]=10-15, orientation sagittal) were acquired for quantification of brain atrophy. Finally, T1-weighted images (1.5 T scanners: conventional spin echo sequence; TR=600-650 ms, TE=10-20 ms, slice thickness=3 mm, and contiguous axial slices=44; 3.0 T scanners: 3D sequence; TR=5-9 ms, TE=2-5 ms, FA=15, slice thickness=3 mm, and contiguous axial slices=44) were obtained 5 minutes after injection of 0.1 mmol/kg of gadolinium. A series of axial, coronal, and sagittal images was obtained to create an axial reference scan for subsequent careful repositioning of each patient at the follow-up session. Axial slices were positioned to run parallel to a line joining the most inferioanterior and inferioposterior parts of the corpus callosum. Image quality was reviewed at the MRI-AC using predetermined criteria. The identification of GdE and T2-hyperintense lesions was done by consensus of two experienced observers. The number of total and new GdE lesions and new/enlarging T2-hyperintense lesions were counted. The identified lesions were then outlined by trained technicians using a semiautomated segmentation technique based on local thresholding (Jim 4.0; […] System, Leicester, UK) and lesion volumes were calculated automatically. Percentage brain volume changes and cross-sectional normalized brain volumes were measured on […] T1-weighted images, with Structural Image Evaluation of Normalized Atrophy (SIENA) software and a cross-sectional method ([…]) (available from the FMRIB Software Library, Oxford University, Oxford, UK; http://www.fmrib.ox.ac.uk/analysis/research/[…]). Analyses of the secondary MRI endpoints of the cumulative number of GdE and new/enlarging T2 lesions at 12 and 24 months involved a baseline-adjusted negative binomial regression with an “offset” employing the log of the relative exposure to adjust for early-terminated patients. The model included as covariates the number of enhancing lesions at baseline, and country or geographical region. In the case of new/enlarging T2 lesion analysis, the baseline T2 lesion volume was also added. […] The analysis of the brain atrophy endpoint involved a baseline-adjusted analysis of covariance (ANCOVA). The covariates were the number of GdE lesions at baseline and the country or region. The exploratory endpoints were all analyzed at a significance level of 5%. Secondary endpoints of the ALLEGRO trial included disease activity as measured by MRI, including counts of Gadolinium enhancing T1 lesions and new-T2 hyperintense lesions. […] Conventional MRI scans for new T1 hypointense lesions, and brain volume using SIENA were performed at baseline, 12 and 24 months. […]

[1] = 0.6 mg daily oral vs placebo, listed as laquinimod
[2] = 0.6 mg daily oral, listed as laquinimod
[3] = post-hoc, not naïve, vs placebo

SMILES: CCN(C(=O)c1c(O)c2c(Cl)cccc2n(C)c1=O)c1ccccc1 [Laquinimod, laquinimod]
- Cumulative new Hypointense T1 lesions months 12 + 24, mean (0.6 mg daily oral): 1.468
- Cumulative number of GdE lesions at months 12 and 24, mean (0.6 mg daily oral): 1.332
- Cumulative number of GdE lesions at months 12 and 24, median (0.6 mg daily oral): 0.00
- Cumulative number of new/enlarging T2 lesions at 12 and 24 months, mean (0.6 mg daily oral): 5.032
- Cumulative new Hypointense T1 lesions months 12 + 24, reduction (0.6 mg daily oral vs placebo): 27% reduction
- Cumulative number of new/enlarging T2 lesions at 12 and 24 months, reduction (0.6 mg daily oral vs placebo): 30% reduction
- Percent change of brain volume baseline to month 24, reduction in brain atrophy (0.6 mg daily oral vs placebo): 32.8% reduction
- Percent change of brain volume from baseline to month 24, adjusted mean difference (0.6 mg daily oral vs placebo): 0.426
- BA at month 12, reduction (0.6 mg daily oral vs placebo): 53% reduction
- BA at month 12, reduction [1]: 51.7%
- Cumulative new Hypointense T1 lesions months 12 + 24, reduction [1]: 26.7%
- Cumulative number of new/enlarging T2 lesions at 12 and 24 months, reduction [1]: 30%
- Percent change of brain volume baseline to month 24, reduction in brain atrophy [1]: 32.8%
- Percent change of brain volume from baseline to month 24, adjusted mean change (0.6 mg daily oral, SIENA): −0.871%
- BA (brain atrophy, percent brain volume change) at month 12 (0.6 mg daily oral): −0.358%
- BA (brain atrophy, percent brain volume change) at month 12 [2]: −0.358%
- Cumulative new Hypointense T1 lesions months 12 + 24, mean [2]: 1.47
- Adjusted mean change in NAA/Cr from baseline to month 24 (1H-MRS subgroup, n=12): 0.087
- Change in average MTR of T2 visible lesions (MT MRI subgroup, n=43): −0.005
- Change in mean MTR whole brain from baseline to last observed value (LOV) (MT MRI subgroup, n=44): +0.045
- Change in mean MTR whole brain baseline to LOV, difference from placebo (MT MRI subgroup, p=0.0180): 0.483
- Change in average MTR of T2 visible lesions, difference from placebo (MT MRI subgroup, p=0.1007): 0.330
- Hypointense T1 volume, change BL to M24 (baseline to month 24): 7%^
- T2 volume, change BL to M24 (baseline to month 24): 11.5%^
- Hypointense T1 volume (month 12): 2.805
- T2 volume (month 12): 8.005
- Hypointense T1 volume, effect (month 12, vs placebo): ~1%
- T2 volume, effect (month 12, vs placebo): 5%
- Hypointense T1 volume (month 24): 2.829
- T2 volume (month 24): 8.111
- Hypointense T1 volume, effect (month 24, vs placebo): ~1%
- T2 volume, effect (month 24, vs placebo): 5%
- BA for pts with all scans, change BL to M12 (post-hoc): −0.337
- BA for pts with all scans, change BL to M24 (post-hoc): −0.855
- BA from M12 to M24 (post-hoc): −0.548
- % BV change M24 (post-hoc, GdE = 0): −0.859%
- % BV change M24, reduction (post-hoc, GdE = 0, vs placebo): 30% reduction
- % BV change M24 (post-hoc, GdE > 0): −0.881%
- % BV change M24, reduction (post-hoc, GdE > 0, vs placebo): 37% reduction
- GdE counts (post-hoc, M12): 0.731
- GdE lesion free (post-hoc, M12): 69% ^
- GdE volume (post-hoc, M12): 1.058
- New T2 lesion # (post-hoc, M12): 2.81
- New-T1 Hypointense Lesions (post-hoc, M12): 1.074
- T1 Hypointense Lesion free (post-hoc, M12): 56.3% ^
- T2 lesion free (post-hoc, M12): 30.8% ^
- GdE counts, reduction (post-hoc, M12, vs placebo): 36% reduction
- GdE lesion free, effect on odds (post-hoc, M12, vs placebo): 49% odds
- GdE volume, effect (post-hoc, M12, vs placebo): 4.5%
- New T2 lesion #, effect (post-hoc, M12, vs placebo): 33.5%
- New-T1 Hypointense Lesions, reduction (post-hoc, M12, vs placebo): 27% reduction
- T1 Hypointense Lesion free, effect on odds (post-hoc, M12, vs placebo): 28% odds
- T2 lesion free, effect on odds (post-hoc, M12, vs placebo): 39% odds
- GdE counts (post-hoc, M24): 0.482
- GdE lesion free (post-hoc, M24): 74.5% ^
- GdE volume (post-hoc, M24): 1.045
- New T2 lesion # (post-hoc, M24): 4.45
- New-T1 Hypointense Lesions (post-hoc, M24): 1.230
- T1 Hypointense Lesion free (post-hoc, M24): 52.8% ^
- T2 lesion free (post-hoc, M24): 20.3% ^
- GdE counts, reduction (post-hoc, M24, vs placebo): 39% reduction
- GdE lesion free, effect on odds (post-hoc, M24, vs placebo): 72% odds
- GdE volume, effect (post-hoc, M24, vs placebo): 4.7%
- New T2 lesion #, effect (post-hoc, M24, vs placebo): 31.5%
- New-T1 Hypointense Lesions, reduction (post-hoc, M24, vs placebo): 32% reduction
- T1 Hypointense Lesion free, effect on odds (post-hoc, M24, vs placebo): 47% odds
- T2 lesion free, effect on odds (post-hoc, M24, vs placebo): 40% odds
- % BVC BL to M24 (post-hoc, MRI free NO): −1.001%
- % BVC BL to M24, effect (post-hoc, MRI free NO, vs placebo): 65.5%
- % BVC BL to M24 (post-hoc, MRI free YES): −0.533%
- % BVC BL to M24, effect (post-hoc, MRI free YES, vs placebo): 45.5%
- % BV change by previous medications (post-hoc, naïve): −0.82%
- Cum # T1 GdE by previous medications (post-hoc, naïve): 1.135
- Cum New T2 by previous medications (post-hoc, naïve): 4.967
- T1 hypointense by previous medications (post-hoc, naïve): 1.585
- % BV change by previous medications, reduction (post-hoc, naïve, vs placebo): 38% reduction
- Cum # T1 GdE by previous medications, reduction (post-hoc, naïve, vs placebo): 42% reduction
- Cum New T2 by previous medications, reduction (post-hoc, naïve, vs placebo): 33% reduction
- T1 hypointense by previous medications, reduction (post-hoc, naïve, vs placebo): 28% reduction
- Cum # T1 GdE by previous medications (post-hoc, not naive): 1.746
- Cum # T1 GdE by previous medications, reduction (post-hoc, not naive, vs placebo): 32% reduction
- % BV change by previous medications (post-hoc, not naïve): −0.954%
- Cum New T2 by previous medications (post-hoc, not naïve): 5.075
- T1 hypointense by previous medications (post-hoc, not naïve): 1.217
- % BV change by previous medications, reduction [3]: 23% reduction
- Cum New T2 by previous medications, reduction [3]: 24% reduction
- T1 hypointense by previous medications, reduction [3]: 25% reduction
- BA for pts with all scans, change BL to M12, effect (post-hoc, vs placebo): 60%
- BA for pts with all scans, change BL to M24, effect (post-hoc, vs placebo): 57%
